How the values were obtained:
rat microglia [1] = experiment: Nitric oxide (nitrite) production by cultured rat microglia (Griess reaction); type: cell-based; details: in the presence of TGF-β
Description: (§1) The ability of cultured rat microglia to produce the soluble cytotoxic agents, TNF-αand nitric oxide, was examined. Rat microglia were harvested and plated in a 96-well plate at a density of 5×10^5 cells/well in 200 μl of serum-free CellGro complete medium (MediaTech, Inc.). In some wells, the medium was supplemented with different concentrations of LPS alone (from E. coli serotype […]; Sigma) while others were supplemented with a combination of LPS and recombinant rat IFN-γ (100 U/ml; R&D Systems). After 24 hours of incubation at 37° C., TNF-α protein in the supernatant of each well was quantified using a Cytoscreen rat-specific TNF-α ELISA kit (Biosource Intl., Camarillo, Calif.), and NO (nitrite) levels in the supernatant of each well were determined using the Griess reaction. All experiments were carried out in triplicate.

rat microglia [2] = experiment: TNF-α production by cultured rat microglia (rat-specific TNF-α ELISA); type: cell-based; details: in the presence of TGF-β
Description: as §1

RG2 glioma cells = experiment: Microglia-mediated tumor cytotoxicity on co-cultured RG2 cells (modified MTT reduction assay); type: cell-based, rat; details: L-NMA exposure
Description: Co-cultures of microglia and RG2 cells were established and cytotoxicity assays were carried out as follows: isolated rat microglial cells (5×10^5 cells/well) were added to a 96-well plate containing 200 μl/well of complete medium. After allowing the cells to adhere for one hour, the medium was aspirated and the appropriate number of RG2 cells (from 2.5×10^4 to 1×10^6 to yield effector:target [E:T] ratios from 0.5:1 to 20:1) was added to the wells in 200 μl of fresh, complete medium. As controls, glioma cells and microglia were cultured separately in other wells of the plate. Microglia-mediated tumor cytotoxicity was measured using a modified MTT reduction assay.
All experiments were performed in quadruplicate. Some co-culture experiments were carried out on glass cover slips to provide visual documentation of cytotoxicity. The cover slips were immersed in paraformaldehyde solution and then subjected to cresyl violet staining.
To determine the contributions of TNF-α and NO to the tumoricidal activity of microglia, MTT cytotoxicity assays were carried out in the presence of TNF-α binding protein (TNF-bp; an inhibitor of TNF-α) and N^G-monomethyl-L-arginine (L-NMA; an inhibitor of NO production).
The effects of TGF-β on microglial tumor cytotoxicity were also investigated in MTT cytotoxicity assays in the presence of TGF-β.

Compound	microglial production of NO (rat microglia [1])	microglial production of TNF-α (rat microglia [2])	killing of co-cultured RG2 by LPS/IFN-γ stimulated microglia (RG2 glioma cells)
TGF-β	concurrent decreases	concurrent decreases	–
CNC(=N)NCCC[C@H](N)C(=O)O [L-NMA, N^G-monomethyl-L-arginine]	–	–	significantly inhibited
